Values quoted from earlier work, collected in publication PMC8838197, “Coumarin-Resveratrol-Inspired Hybrids as Monoamine Oxidase B Inhibitors: 3-Phenylcoumarin versus trans-6-Styrylcoumarin” (Molecules, 2022).

Tested on: MAO-B
Set-up: pIC50 MAO-B: unit not given here
Conditions: cited from earlier work; for pIC50 MAO-B: Table S8

| SMILES | pIC50 MAO-B | activity against MAO-B isoform (data set compounds) | MAO-B pIC50 (data set compounds) |
| --- | --- | --- | --- |
| Cc1ccc2oc(=O)c(-c3ccccc3)cc2c1 [Compound 1] | 6.547 |  |  |
| COc1ccc(-c2cc3cc(C)ccc3oc2=O)cc1 [Compound 2] | 7.884 |  |  |
| COc1cc(OC)cc(-c2cc3cc(C)ccc3oc2=O)c1 [Compound 3] | 8.047 |  |  |
| COc1cc(-c2cc3cc(C)ccc3oc2=O)cc(OC)c1OC [Compound 4] | 6.794 |  |  |
| COc1cccc(-c2cc3cc(C)ccc3oc2=O)c1 [Compound 5, 3-(3′-methoxyphenyl)-6-methylcoumarin] | 9.096 | picomolar range |  |
| COc1ccccc1-c1cc2cc(C)ccc2oc1=O [Compound 6] | 6.808 |  | > 6.5 |
| Cc1ccc2oc(=O)c(-c3ccccc3Br)cc2c1 [Compound 8] | 7.957 |  | > 6.5 |
| COc1ccc(-c2cc3cc(C)cc(Br)c3oc2=O)cc1 [Compound 9] | 8.491 |  |  |
| COc1cc(OC)cc(-c2cc3cc(C)cc(Br)c3oc2=O)c1 [Compound 10] | 8.148 |  | > 6.5 |
| COc1ccc2oc(=O)c(-c3cccc(C)c3)cc2c1 [Compound 12] | 7.768 |  | > 6.5 |
| COc1ccc2oc(=O)c(-c3ccc(C)cc3)cc2c1 [Compound 13] | 8.818 |  |  |
| CC(=O)COc1ccc2oc(=O)c(-c3ccc(C)cc3)cc2c1 [Compound 15] | 5.258 |  |  |
| Cc1ccc(-c2cc3cc(OC4CCCC4)ccc3oc2=O)cc1 [Compound 16] | 4.84 |  |  |
| Cc1cccc(-c2cc3cc(C)ccc3oc2=O)c1 [Compound 18] | 7.824 |  |  |
| COc1ccc(-c2cc3cc(C)ccc3oc2=O)cc1OC [Compound 19] | 8.564 |  |  |
| COc1cc(-c2cc3cc(C)ccc3oc2=O)ccc1Br [Compound 20] | 9.131 |  | > 6.5 |
| COc1ccc(-c2cc3cc(C)ccc3oc2=O)cc1Br [Compound 21] | 8.488 |  |  |
| COc1cc(OC)c(Br)c(-c2cc3cc(C)ccc3oc2=O)c1 [Compound 22] | 4.267 |  |  |
| CC(=O)COc1cccc(-c2cc3cc(C)ccc3oc2=O)c1 [Compound 25] | 6.745 |  |  |
| COc1ccc(-c2c(O)c3ccccc3oc2=O)cc1 [Compound 26] | 4.157 |  |  |
| COc1ccc(-c2c(O)c3cc(C)ccc3oc2=O)cc1 [Compound 27] | 4.494 |  |  |
| COc1ccc(-c2c(O)c3cc(C)ccc3oc2=O)cc1Cl [Compound 29] | 4.37 |  |  |

| SMILES | pIC50 MAO-B | activity against MAO-B isoform (data set compounds) | MAO-B pIC50 (data set compounds) |
| --- | --- | --- | --- |
| COc1cccc2cc(-c3ccccc3)c(=O)oc12 [Compound 34] | 6.824 |  |  |
| COc1cccc2cc(-c3ccc(Br)cc3)c(=O)oc12 [Compound 35] | 5.48 |  |  |
| Cc1cccc2cc(-c3ccc(Br)cc3)c(=O)oc12 [Compound 39] | 7.701 |  | > 6.5 |
| O=c1oc2ccccc2cc1-c1ccccc1 [Compound 40] | 4.928 |  |  |
| Cc1ccc(C(=O)Nc2cc3ccccc3oc2=O)cc1 [Compound 42] | 5.099 |  |  |
| COc1ccc(C(=O)Nc2cc3ccccc3oc2=O)cc1 [Compound 44] | 4.516 |  |  |
| O=C(Nc1cc2ccccc2oc1=O)c1ccc(Cl)cc1 [Compound 45] | 5.71 |  |  |
| COc1ccc(C(=O)Nc2cc3ccccc3oc2=O)cc1OC [Compound 46] | 4.234 |  |  |
| COc1cc(C(=O)Nc2cc3ccccc3oc2=O)cc(OC)c1OC [Compound 47] | 4.139 |  |  |
| O=C(Nc1cc2ccccc2oc1=O)c1ccc(Cl)c(Cl)c1 [Compound 48] | 5.225 |  |  |
| O=C(Nc1cc2ccccc2oc1=O)C1CCCCC1 [Compound 49] | 4.301 |  |  |
| COc1ccc(-c2cc3cc(OC)ccc3oc2=O)cc1 [Compound 52] | 7.143 |  |  |
| COc1ccc(-c2cc3cc(Br)ccc3oc2=O)cc1 [Compound 53] | 8.222 |  |  |
| COc1ccc2oc(=O)c(-c3ccccc3)cc2c1 [Compound 62] | 6.384 |  |  |
| Cc1ccc2oc(=O)c(-c3ccc(Br)cc3)cc2c1 [Compound 64, 3-(4′-bromophenyl)-6-methylcoumarin] | 9.412 |  | > 6.5 |
| COc1ccc2oc(=O)c(-c3ccc(Br)cc3)cc2c1 [Compound 66, 3-(4′-bromophenyl)-6-mehtoxycoumarin] | 9.495 |  | > 6.5 |
| COc1ccc2oc(=O)c(-c3cccc(Br)c3)cc2c1 [Compound 67, 3-(3′-bromophenyl)-6-methoxycoumarin] | 9.187 |  | > 6.5 |
| O=c1oc2ccc(O)cc2cc1-c1cccc(Br)c1 [Compound 69] | 8.097 |  | > 6.5 |
| O=c1oc2ccc(OC3CCCC3)cc2cc1-c1ccc(Br)cc1 [Compound 70] | 5.154 |  |  |
| CC(=O)COc1ccc2oc(=O)c(-c3cccc(Br)c3)cc2c1 [Compound 71] | 5.83 |  |  |
| O=C(O)COc1ccc2oc(=O)c(-c3cccc(Br)c3)cc2c1 [Compound 74] | 8.62 |  | > 6.5 |
| COc1ccc(-c2cc3c(ccc4ccccc43)oc2=O)cc1 [Compound 75] | 7.237 |  |  |

| SMILES | pIC50 MAO-B | activity against MAO-B isoform (data set compounds) | MAO-B pIC50 (data set compounds) |
| --- | --- | --- | --- |
| COc1cccc(-c2cc3c(ccc4ccccc43)oc2=O)c1 [Compound 76] | 8.613 |  | > 6.5 |
| COc1ccccc1-c1cc2c(ccc3ccccc32)oc1=O [Compound 77] | 7.385 |  |  |
| COc1ccc(-c2cc3c(ccc4ccccc43)oc2=O)cc1OC [Compound 78] | 7.312 |  | > 6.5 |
| COc1cc(-c2cc3c(ccc4ccccc43)oc2=O)cc(OC)c1OC [Compound 79] | 5.851 |  |  |
| Cc1cccc(-c2cc3c(ccc4ccccc43)oc2=O)c1 [Compound 80] | 5.62 |  |  |
| O=c1oc2ccc3ccccc3c2cc1-c1ccccc1O [Compound 83] | 5.496 |  |  |
| O=c1oc2ccc3ccccc3c2cc1-c1cc(O)cc(O)c1 [Compound 85] | 4.503 |  |  |
| Cc1ccc2oc(=O)c(-c3ccccc3[N+](=O)[O-])cc2c1 [Compound 86] | 5.258 |  |  |
| Cc1ccc2oc(=O)c(-c3cccc([N+](=O)[O-])c3)cc2c1 [Compound 87] | 8.222 |  |  |
| Cc1ccc2oc(=O)c(-c3ccccc3N)cc2c1 [Compound 89] |  |  | 5.664 |
| Cc1ccc2oc(=O)c(-c3cccc(N)c3)cc2c1 [Compound 90] | 8.658 |  |  |
| Cc1ccc2oc(=O)c(-c3ccc(N)cc3)cc2c1 [Compound 91] | 8.387 |  | > 6.5 |
| COc1cc(C(=O)Nc2c(O)c3ccccc3oc2=O)cc(OC)c1OC [Compound 92] | 4.433 |  |  |
| O=C(Nc1c(O)c2ccccc2oc1=O)c1ccc(Cl)c(Cl)c1 [Compound 93] | 4.721 |  |  |
| O=C(Nc1cc2ccccc2oc1=O)c1cccs1 [Compound 94] | 5.644 |  |  |
| O=C(Nc1c(O)c2ccccc2oc1=O)c1cccs1 [Compound 95] | 4.81 |  |  |
| O=C(Nc1cc2ccccc2oc1=O)c1cccnc1 [Compound 96] | 4.676 |  |  |
| O=C(Nc1c(O)c2ccccc2oc1=O)C1CCCCC1 [Compound 97] | 4.648 |  |  |
| Cc1ccc2oc(=O)c(C(=O)Nc3ccccc3C)cc2c1 [Compound 98] | 7.928 |  |  |
| Cc1cccc(NC(=O)c2cc3cc(C)ccc3oc2=O)c1 [Compound 99] | 8.124 |  |  |
| Cc1ccc(NC(=O)c2cc3cc(C)ccc3oc2=O)cc1 [Compound 100] | 7.857 |  |  |
| COc1ccccc1NC(=O)c1cc2cc(C)ccc2oc1=O [Compound 101] | 6.794 |  |  |

| SMILES | pIC50 MAO-B | activity against MAO-B isoform (data set compounds) | MAO-B pIC50 (data set compounds) |
| --- | --- | --- | --- |
| COc1cccc(NC(=O)c2cc3cc(C)ccc3oc2=O)c1 [Compound 102] | 7.996 |  |  |
| COc1ccc(NC(=O)c2cc3cc(C)ccc3oc2=O)cc1 [Compound 103] | 6.527 |  |  |
| Cc1ccc2oc(=O)c(C(=O)Nc3ccccc3Br)cc2c1 [Compound 104] | 7.87 |  |  |
| Cc1ccc2oc(=O)c(C(=O)Nc3cccc(Br)c3)cc2c1 [Compound 105] | 8.332 |  |  |
| Cc1ccc2oc(=O)c(C(=O)Nc3ccc(Br)cc3)cc2c1 [Compound 106] | 7.943 |  | > 6.5 |
| Cc1ccc2oc(=O)c(C(=O)Nc3ccccc3O)cc2c1 [Compound 107] | 7.738 |  |  |
| Cc1ccc2oc(=O)c(C(=O)Nc3cccc(O)c3)cc2c1 [Compound 108] | 7.343 |  |  |
| Cc1ccc2oc(=O)c(C(=O)Nc3ccc(O)cc3)cc2c1 [Compound 109] | 6.206 |  | < 6.5 |
| Cc1ccc2oc(=O)c(C(=O)Nc3ccccc3)cc2c1 [Compound 110] | 7.815 |  |  |
| Cc1cccc(NC(=O)c2cc3cc(C)ccc3oc2=O)c1 [Compound 111] | 8.124 |  |  |
| Cc1ccc2oc(=O)c(C(=O)Nc3cccc(Cl)c3)cc2c1 [Compound 112] | 8.295 |  |  |
| Cc1ccc2oc(=O)c(C(=O)Nc3cccc(O)c3)cc2c1 [Compound 113] | 7.343 |  |  |
| Cc1ccc2oc(=O)c(C(=O)Nc3ccc(Cl)cc3)cc2c1 [Compound 114] | 7.955 |  | > 6.5 |
| Cc1ccc2oc(=O)c(C(=O)Nc3ccc(O)cc3)cc2c1 [Compound 115] | 6.206 |  | < 6.5 |
| COc1ccc2oc(=O)c(C(=O)Nc3ccccc3)cc2c1 [Compound 116] | 8.225 |  |  |
| COc1ccc2oc(=O)c(C(=O)Nc3cccc(C)c3)cc2c1 [Compound 117] | 7.326 |  |  |
| COc1ccc2oc(=O)c(C(=O)Nc3cccc(Cl)c3)cc2c1 [Compound 118] | 8.044 |  |  |
| COc1ccc2oc(=O)c(C(=O)Nc3cccc(O)c3)cc2c1 [Compound 119] | 6.641 |  |  |
| COc1ccc2oc(=O)c(C(=O)Nc3ccc(C)cc3)cc2c1 [Compound 120] | 7.712 |  |  |
| COc1ccc2oc(=O)c(C(=O)Nc3ccc(Cl)cc3)cc2c1 [Compound 121] | 7.724 |  | > 6.5 |
| Cc1ccc2occ(C(=O)Nc3ccccc3)c(=O)c2c1 [Compound 122] | 7.671 |  |  |
| Cc1cccc(NC(=O)c2coc3ccc(C)cc3c2=O)c1 [Compound 123] | 7.767 |  |  |
